Here are results for 3 sequences from patent US9169315B2, “Heparin cofactor II fragments with anti-inflammatory and anti-coagulant activity” (XIMMUNE AB, priority 2009, dated 2015).

Assay [1] concerns Escherichia coli, Pseudomonas aeruginosa, Bacillus subtilis, Staphylococcus aureus, Candida albicans, Candida parapsilosis. In words: Radial diffusion assay (RDA). The format is cell-based. Conditions: peptide at 100 μM; compared with LL-37. On the procedure:
Essentially as described earlier, bacteria were grown to mid-logarithmic phase in 10 ml of full-strength (3% w/v) trypticase soy broth (TSB) (Becton-Dickinson). The microorganisms were then washed once with 10 mM Tris, pH 7.4. Subsequently, 4×10^6 cfu were added to 15 ml of the underlay agarose gel, consisting of 0.03% (w/v) TSB, 1% (w/v) low electroendosmosis type (EEO) agarose (Sigma-Aldrich) and 0.02% (v/v) Tween 20 (Sigma-Aldrich). The underlay was poured into a Ø 144 mm petri dish. After agarose solidification, 4 mm-diameter wells were punched and 6 μl peptide solution of required concentration added to each well. Plates were incubated at 37° C. for 3 h to allow peptide diffusion. The underlay gel was then covered with 15 ml of molten overlay (6% TSB and 1% Low-EEO agarose in distilled H2O). Antimicrobial activity of a peptide was visualized as a zone of clearing around each well after 18-24 h of incubation at 37° C.
Essentially as described earlier (Lehrer, Rosenman et al. 1991; Andersson, Rydengård et al. 2004), bacteria were grown to mid-logarithmic phase in 10 ml of full-strength (3% w/v) trypticase soy broth. (TSB) (Becton-Dickinson). The microorganisms were then washed once with 10 mM Tris, pH 7.4. Subsequently, 4×10^6 cfu were added to 15 ml of the underlay agarose gel, consisting of 0.03% (w/v) TSB, 1% (w/v) low electroendosmosis type (EEO) agarose (Sigma-Aldrich) and 0.02% (v/v) Tween 20 (Sigma-Aldrich). The underlay was poured into a Ø 144 mm petri dish. After agarose solidification, 4 mm-diameter wells were punched and 6 μl peptide solution of required concentration added to each well. Plates were incubated at 37° C. for 3 h to allow peptide diffusion. The underlay gel was then covered with 15 ml of molten overlay (6% TSB and 1% Low-EEO agarose in distilled H2O). Antimicrobial activity of a peptide was visualized as a zone of clearing around each well after 18-24 h of incubation at 37° C. […]

For a further assay, the system named is E. coli 0111:B4 LPS. In words: LPS model in vivo (E. coli LPS-induced shock). Set-up: species or system C57BL/6 mice. Conditions: for Platelet counts / IFN-γ in blood / IL-10 in blood / IL-6 in blood / MCP-1 in blood / TNF-α in blood: 0.5 mg peptide; for Platelet counts: 8 and 20 h after LPS; for IFN-γ in blood / IL-6 in blood / MCP-1 in blood / TNF-α in blood: 8 and 20 h after LPS injection; for IL-10 in blood: 8 or 20 h after LPS injection; for Survival: 18 mg/kg E. coli LPS i.p., peptide i.p., followed 7 days; for Weight: followed for 7 days. On the procedure:
Septic shock in C57BL6 mice was induced by intraperitoneal injection of 18 mg/kg E. coli LPS. Sixty minutes later KYE28 and KYE21 (0.2 and 0.5 mg; in PBS) or buffer only was administered. […] (C) Peptide treatment affects the number of platelets in the LPS-induced shock model. (D) In separate experiments mice were injected with LPS followed by administration of 0.5 mg of KYE28 or KYE21, or buffer. Animals were sacrificed at 8 h, 20 h, or after 7 days and the number of platelets in blood counted using the VetScanSystem. […] Cytokines were measured in blood from animals sacrificed at 8 or 20 h after LPS injection. […] C57BL6 were i.p. injected with […] LPS followed by 0.5 mg of KYE28 After 20 h mice were sacrificed and cytokine levels in blood were determined. (KYE28; n=10). All data are representative of two independent experiment.
RAW 264.7 macrophages were stimulated with 10 ng/ml E. coli or P. aeruginosa LPS in combination with indicated concentrations NLF20. […] Clotting times were determined without (control) or with 20 μM of the peptide. Activated partial thromboplastin time (aPTT) was measured by incubating the peptides at the indicated concentrations in citrated human plasma for 1 minute followed by the addition of 100 μl aPTT reagent (aPTT Automate, Diagnostica Stago) for 60 seconds at 37° C. Clotting was initiated by the addition of CaCl2 solution. Results illustrating the prothombin time assay (PT) and thrombin clotting time (TCT) are also presented. (C) Septic shock in C57BL6 mice was induced by intraperitoneal injection of 18 mg/kg E. coli LPS. NLF20 (0.2 or 0.5 mg in 10 mM Tris, pH 7.4) or buffer only was administered. […] (E) Weight was followed for 7 days. […] In separate experiments mice were injected with LPS followed by administration of 0.5 mg of NLF20, or buffer. Animals were sacrificed at 8 h, 20 h, and survivors after 7 days and the number of platelets in blood counted using the VetScanSystem. (F) Administration of NLF20 (0.5 mg) selectively modulates the cytokine response compared to control mice. Cytokines were measured in blood from animals sacrificed at 8 or 20 h after LPS injection. (G) NLF abrogates inflammation in lungs. Lungs were analyzed by light microscopy after staining with hematoxylin-eosin, or analyzed by scanning electron microscopy 20 h after LPS injection i.p., followed by treatment with NLF20 (0.5 mg) or buffer.
Male C57BL/6 mice (8-10 weeks, 22+/−5 g), were injected intraperitoneally with 18 mg E. coli 0111:B4 LPS (Sigma) per kg of body weight. Thirty minutes after LPS injection, 0.5 mg KYE28, KYE21 or buffer alone was injected intraperitoneally into the mice. Survival and status was followed during seven days. For blood collection and histochemistry, mice were sacrificed 20 h after LPS challenge, and lungs were removed and fixed. These experiments were approved by the Laboratory Animal Ethics Committee of Malmö/Lund.
Male C57BL/6 mice (8-10 weeks, 22+/−5 g), were injected intraperitoneally with 18 mg E. coli 0111:B4 LPS (Sigma) per kg of body weight. Thirty minutes after LPS injection, 0.5 mg NLF20 or buffer alone was injected intraperitoneally into the mice. Survival and status was followed during seven days. For blood collection and histochemistry, mice were sacrificed 20 h after LPS challenge, and lungs were removed and fixed. These experiments were approved by the Laboratory Animal Ethics Committee of Malmö/Lund.

No end group written: not given here.

Turning to NLFRKLTHRLFRRNFGYTLR [NLF20], the “Antimicrobial activity in RDA (zones of clearance)” value (“Antimicrobial activity in RDA” for short) in assay [1] is listed as “well exceeded those observed for”. Moreover, in the assay on E. coli 0111:B4 LPS, the Platelet counts result was “significantly increased platelets”; the IFN-γ in blood result is reported as “significant reductions”; the IL-10 in blood result is “an increase in IL-10 was observed after 8 h and 20 h”; the Survival entry is reported as “dramatic improvement on survival”. Moreover, the Weight entry in the assay on E. coli 0111:B4 LPS is reported as “full recovery of weight”.

Consider KYEITTIHNLFRKLTHRLFRR [KYE21], for which the “Antimicrobial activity in RDA” value in assay [1] is reported as “activities were similar to those observed for”. In addition, in the assay on E. coli 0111:B4 LPS, the IFN-γ in blood entry is listed as “significant reductions”, the IL-6 in blood entry is reported as “significant reductions”, the MCP-1 in blood result is “significant reductions” and the TNF-α in blood result is given as “significant reductions”. In the assay with E. coli 0111:B4 LPS, the IL-10 in blood result was “an increase in IL-10 was observed after 8 h”, the Survival result is listed as “dramatic improvement on survival” and the Weight result was “full recovery of weight”.

Regarding KYEITTIHNLFRKLTHRLFRRNFGYTLR [KYE28], in assay [1], the “Antimicrobial activity in RDA” value was “activities were similar to those observed for”. Besides, in the assay with E. coli 0111:B4 LPS, the Platelet counts result was “increased platelet levels after 20 h”, the IFN-γ in blood entry was “significant reductions”, the IL-6 in blood result is recorded as “significant reductions” and the MCP-1 in blood entry is reported as “significant reductions”. Further, in the assay on E. coli 0111:B4 LPS, the TNF-α in blood result is “significant reductions”, the IL-10 in blood result was “an increase in IL-10 was observed after 8 h”, the Survival result was “dramatic improvement on survival” and the Weight result is on record as “full recovery of weight”.
